Experiment [1] has as its target Matrix metalloproteinase-9 (Homo sapiens, UniProt P14780). In words: Inhibition of MMP9 (unknown origin).
Experiment [2] has as its target 72 kDa type IV collagenase (Homo sapiens, UniProt P08253). Nature of the experiment: Inhibition of MMP2 (unknown origin).
In a further experiment the target is T1, Matrilysin (Homo sapiens, UniProt P09237).
T1 sequence (P09237 whole entry): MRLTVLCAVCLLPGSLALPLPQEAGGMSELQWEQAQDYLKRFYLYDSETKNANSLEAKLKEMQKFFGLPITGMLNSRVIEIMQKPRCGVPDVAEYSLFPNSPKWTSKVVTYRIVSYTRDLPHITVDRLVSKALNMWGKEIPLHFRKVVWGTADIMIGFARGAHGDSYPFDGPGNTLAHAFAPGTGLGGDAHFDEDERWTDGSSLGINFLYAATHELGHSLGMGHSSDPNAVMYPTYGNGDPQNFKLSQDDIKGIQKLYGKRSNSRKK
Nature of the experiment: Inhibition of MMP7 (unknown origin).

In another experiment the target is T2, Interstitial collagenase (Homo sapiens, UniProt P03956).
T2 sequence (P03956 whole entry): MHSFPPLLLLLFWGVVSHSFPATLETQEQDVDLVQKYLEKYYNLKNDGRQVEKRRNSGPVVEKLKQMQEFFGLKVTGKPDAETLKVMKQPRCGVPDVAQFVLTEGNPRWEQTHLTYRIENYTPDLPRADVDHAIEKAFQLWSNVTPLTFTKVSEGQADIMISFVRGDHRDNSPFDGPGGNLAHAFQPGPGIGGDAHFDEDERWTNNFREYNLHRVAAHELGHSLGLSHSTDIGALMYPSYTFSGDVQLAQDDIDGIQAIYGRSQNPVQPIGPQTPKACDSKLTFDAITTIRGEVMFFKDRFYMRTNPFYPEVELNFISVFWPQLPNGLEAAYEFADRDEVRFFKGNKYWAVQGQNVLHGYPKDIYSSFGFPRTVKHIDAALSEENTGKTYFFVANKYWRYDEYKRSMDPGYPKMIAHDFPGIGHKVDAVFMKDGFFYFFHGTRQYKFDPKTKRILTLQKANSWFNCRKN
Nature of the experiment: Inhibition of MMP1 (unknown origin).

In experiment [3] the target is T3, Matrix metalloproteinase-17 (Homo sapiens, UniProt Q9ULZ9).
T3 sequence (Q9ULZ9 whole entry): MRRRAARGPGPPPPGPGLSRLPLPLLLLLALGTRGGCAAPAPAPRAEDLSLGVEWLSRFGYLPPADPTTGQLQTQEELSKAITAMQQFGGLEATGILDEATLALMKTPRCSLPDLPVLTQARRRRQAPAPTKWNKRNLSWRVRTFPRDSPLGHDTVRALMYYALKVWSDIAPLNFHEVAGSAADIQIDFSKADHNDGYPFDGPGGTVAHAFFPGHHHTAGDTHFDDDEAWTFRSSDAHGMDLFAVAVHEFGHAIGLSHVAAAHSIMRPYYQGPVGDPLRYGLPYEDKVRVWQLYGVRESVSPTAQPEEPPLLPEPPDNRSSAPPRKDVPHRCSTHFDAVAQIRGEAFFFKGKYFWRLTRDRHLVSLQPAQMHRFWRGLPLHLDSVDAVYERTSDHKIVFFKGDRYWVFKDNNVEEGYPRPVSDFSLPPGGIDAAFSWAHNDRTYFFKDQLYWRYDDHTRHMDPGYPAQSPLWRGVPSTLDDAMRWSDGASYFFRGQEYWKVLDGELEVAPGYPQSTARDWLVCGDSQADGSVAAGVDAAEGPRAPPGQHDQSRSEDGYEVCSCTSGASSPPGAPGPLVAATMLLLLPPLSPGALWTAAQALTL
Nature of the experiment: Inhibition of MMP17 (unknown origin).

A further experiment has as its target Stromelysin-1 (Homo sapiens, UniProt P08254). Nature of the experiment: Inhibition of MMP3 (unknown origin).
In experiment [4] the target is Macrophage metalloelastase (Homo sapiens, UniProt P39900). In words: Inhibition of MMP12 (unknown origin).
Experiment [5] deals with Matrix metalloproteinase-14 (Homo sapiens, UniProt P50281). In words: Inhibition of MMP14 (unknown origin).
A further experiment concerns the target Neutrophil collagenase (Homo sapiens, UniProt P22894). Nature of the experiment: Inhibition of MMP8 (unknown origin).

IC50 and Ki data for eight compounds are collected here from ChEMBL document CHEMBL3352020, “Targeting matrix metalloproteinases: exploring the dynamics of the s1' pocket in the design of selective, small molecule inhibitors” (J Med Chem, 2014).

The IC50 is the midpoint of a concentration-inhibition curve. The low end stands for greater potency in that assay, the high end for weaker potency in that assay. Usually Ki stands for a dissociation constant, usually derived from enzyme kinetics or from competition with a known ligand. Low values mean a stronger hold on the target, high ones a looser hold on the target.

Sequence of Macrophage metalloelastase (P39900 whole entry): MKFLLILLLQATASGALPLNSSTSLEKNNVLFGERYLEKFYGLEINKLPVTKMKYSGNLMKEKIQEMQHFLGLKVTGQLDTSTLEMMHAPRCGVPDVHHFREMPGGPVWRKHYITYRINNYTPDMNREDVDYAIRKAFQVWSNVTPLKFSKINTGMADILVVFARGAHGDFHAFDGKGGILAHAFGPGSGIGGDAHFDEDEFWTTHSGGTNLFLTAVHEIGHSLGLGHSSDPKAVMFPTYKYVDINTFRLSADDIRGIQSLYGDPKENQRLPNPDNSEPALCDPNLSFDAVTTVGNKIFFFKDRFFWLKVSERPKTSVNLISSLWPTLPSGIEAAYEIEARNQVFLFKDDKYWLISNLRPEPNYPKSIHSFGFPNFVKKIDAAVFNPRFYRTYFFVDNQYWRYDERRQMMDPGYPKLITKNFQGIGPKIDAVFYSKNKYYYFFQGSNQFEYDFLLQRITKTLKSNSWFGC
Sequence of Neutrophil collagenase (P22894 whole entry): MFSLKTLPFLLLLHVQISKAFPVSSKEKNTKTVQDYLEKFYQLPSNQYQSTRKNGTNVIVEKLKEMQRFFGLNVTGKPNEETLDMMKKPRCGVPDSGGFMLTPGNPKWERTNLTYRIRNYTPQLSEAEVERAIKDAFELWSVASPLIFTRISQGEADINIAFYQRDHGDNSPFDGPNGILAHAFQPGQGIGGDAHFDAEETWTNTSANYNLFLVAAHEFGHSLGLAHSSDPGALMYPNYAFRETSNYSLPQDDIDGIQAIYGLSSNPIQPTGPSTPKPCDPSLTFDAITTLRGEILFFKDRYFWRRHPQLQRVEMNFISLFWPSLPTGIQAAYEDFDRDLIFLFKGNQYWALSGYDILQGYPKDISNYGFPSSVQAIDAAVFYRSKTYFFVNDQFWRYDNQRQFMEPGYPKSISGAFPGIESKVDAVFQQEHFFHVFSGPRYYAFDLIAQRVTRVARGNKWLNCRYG
Sequence of 72 kDa type IV collagenase (P08253 whole entry): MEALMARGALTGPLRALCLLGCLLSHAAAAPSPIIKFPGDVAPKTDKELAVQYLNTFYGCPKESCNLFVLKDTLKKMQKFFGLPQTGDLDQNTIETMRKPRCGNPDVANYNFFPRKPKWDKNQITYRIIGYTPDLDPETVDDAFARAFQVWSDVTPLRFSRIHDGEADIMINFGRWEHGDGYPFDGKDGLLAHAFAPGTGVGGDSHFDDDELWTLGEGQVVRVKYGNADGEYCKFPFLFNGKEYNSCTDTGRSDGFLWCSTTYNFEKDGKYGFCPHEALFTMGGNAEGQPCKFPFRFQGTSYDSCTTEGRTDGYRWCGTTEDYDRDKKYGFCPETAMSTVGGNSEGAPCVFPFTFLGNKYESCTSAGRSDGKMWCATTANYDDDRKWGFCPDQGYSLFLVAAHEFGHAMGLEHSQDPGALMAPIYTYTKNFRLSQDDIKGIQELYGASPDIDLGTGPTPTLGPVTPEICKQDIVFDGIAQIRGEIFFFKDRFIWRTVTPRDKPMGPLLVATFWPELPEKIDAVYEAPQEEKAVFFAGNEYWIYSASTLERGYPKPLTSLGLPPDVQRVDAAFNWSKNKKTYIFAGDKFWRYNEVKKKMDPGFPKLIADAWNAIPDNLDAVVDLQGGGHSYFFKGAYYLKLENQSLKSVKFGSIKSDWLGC
Sequence of Matrix metalloproteinase-9 (P14780 whole entry): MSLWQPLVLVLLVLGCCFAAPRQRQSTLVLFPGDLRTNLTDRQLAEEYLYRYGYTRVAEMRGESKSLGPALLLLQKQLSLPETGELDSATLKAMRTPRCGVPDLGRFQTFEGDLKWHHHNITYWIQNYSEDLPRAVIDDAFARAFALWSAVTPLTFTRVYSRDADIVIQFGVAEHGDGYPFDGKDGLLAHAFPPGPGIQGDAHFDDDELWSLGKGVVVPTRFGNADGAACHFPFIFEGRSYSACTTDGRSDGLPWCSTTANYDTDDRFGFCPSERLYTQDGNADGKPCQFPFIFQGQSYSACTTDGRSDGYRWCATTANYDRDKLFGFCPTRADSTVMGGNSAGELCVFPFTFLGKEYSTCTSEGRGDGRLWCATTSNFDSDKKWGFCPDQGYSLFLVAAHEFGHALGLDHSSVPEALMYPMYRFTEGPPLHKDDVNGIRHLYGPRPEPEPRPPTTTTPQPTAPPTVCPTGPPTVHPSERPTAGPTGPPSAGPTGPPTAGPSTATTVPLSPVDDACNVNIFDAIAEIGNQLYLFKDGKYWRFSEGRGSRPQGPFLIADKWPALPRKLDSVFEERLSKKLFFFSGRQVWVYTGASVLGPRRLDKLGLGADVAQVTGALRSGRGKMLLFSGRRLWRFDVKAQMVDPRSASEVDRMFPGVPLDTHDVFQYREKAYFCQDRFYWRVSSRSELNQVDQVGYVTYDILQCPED
Sequence of Stromelysin-1 (P08254 whole entry): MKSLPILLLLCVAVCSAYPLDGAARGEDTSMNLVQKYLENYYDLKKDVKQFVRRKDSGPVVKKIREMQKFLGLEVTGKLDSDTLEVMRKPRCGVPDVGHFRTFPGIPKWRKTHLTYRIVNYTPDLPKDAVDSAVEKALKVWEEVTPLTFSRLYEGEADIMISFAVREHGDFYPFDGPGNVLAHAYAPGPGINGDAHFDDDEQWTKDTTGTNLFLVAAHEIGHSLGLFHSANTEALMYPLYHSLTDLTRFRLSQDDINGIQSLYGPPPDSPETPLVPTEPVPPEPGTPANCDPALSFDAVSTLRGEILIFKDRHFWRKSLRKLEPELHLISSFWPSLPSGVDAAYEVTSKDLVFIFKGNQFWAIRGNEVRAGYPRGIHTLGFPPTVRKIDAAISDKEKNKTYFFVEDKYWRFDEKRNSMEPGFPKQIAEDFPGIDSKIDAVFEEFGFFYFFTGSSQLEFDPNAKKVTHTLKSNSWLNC

Regarding `CC(C)N(C)c1ccc(-c2cn(-c3ccc(S(=O)(=O)C4(C(=O)NO)CCNCC4)cc3)nn2)cc1`, the IC50 in experiment [1] was found to be 346 nM; in experiment [2], 3 nM.

Take `Cn1c(=O)n(Cc2ccc(C(=O)O)cc2)c(=O)c2cc(C#CCc3ccccc3)ccc21`: the IC50 (in [1]; at Matrilysin; against Interstitial collagenase; in experiment [3]; at Stromelysin-1; in experiment [2]) was greater than 30000 nM each time. In addition, the IC50 (in [4]; in experiment [5]; against Neutrophil collagenase) was greater than 30000 nM in each case.

On to `O=C(OCc1ccccc1)c1cn2c(=O)n(Cc3ccccc3)c(=O)cc2s1`, for which the IC50 (in experiment [1]; against Matrilysin; against Interstitial collagenase; in [3]; on Stromelysin-1; in experiment [2]) was greater than 30000 nM in each case. In addition, the IC50 (in [4]; in experiment [5]; at Neutrophil collagenase) was greater than 30000 nM each time.

At Interstitial collagenase, `CC#CCOc1ccc(Oc2ccc(S(=O)(=O)NC(C(=O)NO)C(C)C)cc2)cc1` (stereo not drawn) yielded an IC50 of 40 nM. This counts as double-digit nanomolar.

For the compound `O=C1N=C(O)NC(=O)[C@@]1(c1ccccc1)N1CCC(CCO)CC1`, the IC50 at Stromelysin-1 stood at 30000 nM; on Neutrophil collagenase it was 1700 nM.

As to `NC(=O)CC1CCCc2sc3nc(C(=O)NCc4ccc5c(c4)NC(=O)CO5)[nH]c(=O)c3c21` (racemic), the IC50 (in [1]; at Matrilysin; at Interstitial collagenase; on Stromelysin-1; in experiment [2]; in experiment [4]) was greater than 2500 nM in each case. In addition, in experiment [5], the IC50 is greater than 2500 nM.

As to `CN(C)c1ccc(-c2cn(-c3ccc(S(=O)(=O)C4(C(=O)NO)CCNCC4)cc3)nn2)cc1`, the results for the IC50 in experiment [1] and in experiment [2] were 43.9 nM and 1.7 nM, respectively.

The compound `O=C(CC1(S(=O)(=O)c2ccc(Oc3ccccc3)cc2)CCOCC1)NO` came in with a Ki at Interstitial collagenase of 23 nM.
